# pIC50: −log10 of the molar value. Calls of active or inactive are those of the source.
# How the values were obtained:
# [1] = biological target: G-protein coupled receptor 55 (Homo sapiens, UniProt Q9Y2T6); assay: inhibition of LPI-stimulated GPR55 beta-arrestin translocation – imaging, U2OS, beta-arrestin-GFP, LPI agonist, primary screen (AID 2013); format: functional;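 further: antagonist potency measured as reduced agonist-driven arrestin aggregation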
# [2] = Trypanosoma cruzi growth suppression in host cells – NIH3T3 host cells, beta-gal luminescence, confirmation (AID 2044); format: functional, cell-based;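 further: intracellular parasites grown in NIH/3T3 mouse fibroblasts as host cells; luminescent beta-galactosidase reporter signal from transgenic T. cruzi replicating inside host cells; inhibitors lower the luminescence signal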
# [3] = NIH3T3 cell viability loss – ATP luminescence, mouse fibroblasts, counter-screen, dose response (AID 2010); format: functional, cell-based;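 further: cells exposed to compound for about 90 hours before reading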
# INS1 = assay: INS-1E survival protection against cytokine death – cell-based, luminescence, retest, dose response (AID 449756); format: functional; settings: Rattus norvegicus, INS1;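 further: cell death triggered by IL-1 beta plus TNF-alpha plus IFN-gamma mixture; protective hits raise ATP signal compared with cytokine alone wells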
# Coagulation factor XII = biological target: T1, Coagulation factor XII (Homo sapiens, UniProt P00748); assay: activated coagulation factor XII inhibitor potency, concentration-effect curve, cell-free (AID 716); format: functional
# T1 sequence (P00748 whole entry): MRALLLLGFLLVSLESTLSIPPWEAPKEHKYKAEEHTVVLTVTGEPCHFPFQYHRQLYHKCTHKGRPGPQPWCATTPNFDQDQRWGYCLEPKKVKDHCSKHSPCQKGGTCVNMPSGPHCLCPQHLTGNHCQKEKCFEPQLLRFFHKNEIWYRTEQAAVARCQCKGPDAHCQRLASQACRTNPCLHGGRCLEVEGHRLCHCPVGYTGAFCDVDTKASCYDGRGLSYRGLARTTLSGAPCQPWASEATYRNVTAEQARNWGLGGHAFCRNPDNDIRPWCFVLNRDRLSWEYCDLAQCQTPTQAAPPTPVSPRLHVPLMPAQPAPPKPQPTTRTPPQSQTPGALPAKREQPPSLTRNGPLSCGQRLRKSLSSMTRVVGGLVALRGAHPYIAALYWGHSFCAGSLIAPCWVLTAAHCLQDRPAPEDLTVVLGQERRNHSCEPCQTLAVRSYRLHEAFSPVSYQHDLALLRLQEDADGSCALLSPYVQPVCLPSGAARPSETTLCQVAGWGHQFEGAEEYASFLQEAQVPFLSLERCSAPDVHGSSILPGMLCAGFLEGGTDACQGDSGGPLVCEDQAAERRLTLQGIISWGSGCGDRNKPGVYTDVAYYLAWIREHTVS
# [4] = Luminescence Cell-Based Dose Response HTS to Identify Inhibitors of 5'UTR Stem-Loop Driven Prion Protein mRNA Translation in H4 Neuroglioblastoma Cells. [Related pubchem assays: 1827 (Project Summary), 1813 (Primary HTS)]; format: functional
# [5] = alpha-synuclein stem-loop luciferase translation blockers – H4 neuroglioma cells, luminescence, confirmation (AID 1988); format: functional, cell-based
# [6] = biological target: T2, Kappa-type opioid receptor (Homo sapiens, UniProt P41145); format: functional
# T2 sequence (P41145 whole entry): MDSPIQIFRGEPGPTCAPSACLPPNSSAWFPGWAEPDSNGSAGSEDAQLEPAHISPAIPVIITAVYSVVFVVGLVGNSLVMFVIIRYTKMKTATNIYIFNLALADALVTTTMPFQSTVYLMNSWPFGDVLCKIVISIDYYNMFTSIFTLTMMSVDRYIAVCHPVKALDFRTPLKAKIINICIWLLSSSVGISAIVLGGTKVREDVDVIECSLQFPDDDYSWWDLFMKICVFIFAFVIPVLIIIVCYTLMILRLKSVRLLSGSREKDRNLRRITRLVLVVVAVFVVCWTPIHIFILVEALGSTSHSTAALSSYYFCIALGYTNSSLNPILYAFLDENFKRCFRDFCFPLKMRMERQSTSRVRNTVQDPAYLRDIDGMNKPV
# Beta-galactosidase = Beta-galactosidase (Escherichia coli, UniProt Q8VNN2); format: functional
# Sequence of Beta-galactosidase (Q8VNN2 whole entry): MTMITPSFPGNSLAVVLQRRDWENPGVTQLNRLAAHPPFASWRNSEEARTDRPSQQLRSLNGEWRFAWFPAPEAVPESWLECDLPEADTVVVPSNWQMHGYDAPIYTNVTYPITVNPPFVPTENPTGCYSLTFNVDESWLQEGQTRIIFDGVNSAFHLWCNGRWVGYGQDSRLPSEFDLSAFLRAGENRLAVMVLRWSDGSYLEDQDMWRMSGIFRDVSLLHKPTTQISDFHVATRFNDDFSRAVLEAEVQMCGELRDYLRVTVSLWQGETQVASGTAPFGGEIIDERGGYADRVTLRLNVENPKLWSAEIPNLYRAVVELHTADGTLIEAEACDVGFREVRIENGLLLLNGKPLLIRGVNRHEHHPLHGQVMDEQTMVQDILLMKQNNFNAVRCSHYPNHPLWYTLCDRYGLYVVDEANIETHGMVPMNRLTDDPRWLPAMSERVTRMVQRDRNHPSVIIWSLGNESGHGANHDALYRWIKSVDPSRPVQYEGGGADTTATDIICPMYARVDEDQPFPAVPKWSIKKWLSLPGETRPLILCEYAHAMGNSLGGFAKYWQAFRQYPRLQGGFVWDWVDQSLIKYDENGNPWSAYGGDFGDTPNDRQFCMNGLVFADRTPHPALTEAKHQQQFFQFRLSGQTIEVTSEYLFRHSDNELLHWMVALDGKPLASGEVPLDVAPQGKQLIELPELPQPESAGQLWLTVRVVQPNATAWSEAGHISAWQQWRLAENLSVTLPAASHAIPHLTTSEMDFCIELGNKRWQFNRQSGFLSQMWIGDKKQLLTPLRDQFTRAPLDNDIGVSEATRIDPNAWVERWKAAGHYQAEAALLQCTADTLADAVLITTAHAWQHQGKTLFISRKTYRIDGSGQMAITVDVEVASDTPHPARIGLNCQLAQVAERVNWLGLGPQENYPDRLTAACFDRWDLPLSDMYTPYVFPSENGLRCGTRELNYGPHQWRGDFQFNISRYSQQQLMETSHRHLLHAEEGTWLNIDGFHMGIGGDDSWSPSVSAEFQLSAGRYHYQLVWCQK
# [7] = biological target: T2, Kappa-type opioid receptor; format: functional; remark: listed apart in the source
# Vero = assay: mammalian cell viability reduction – secondary assay, cytotoxicity control for West Nile virus antiviral project, dose response (AID 1650); format: functional; settings: Chlorocebus sabaeus
# [8] = biological target: T3, Heat shock factor protein 1 (Mus musculus, UniProt P38532); assay: enhancement of HSF1-driven luciferase signal – cell-based, NIH3T3, luminescence, dose retest, confirmation (AID 435004); format: functional;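 further: stress induced by proteasome inhibitor MG132 added 30 min after compound; luciferase reporter driven by HSF1 response element in NIH3T3 cells; actives raise luminescence as potentiators of the MG132 stress response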
# T3 sequence (P38532 whole entry): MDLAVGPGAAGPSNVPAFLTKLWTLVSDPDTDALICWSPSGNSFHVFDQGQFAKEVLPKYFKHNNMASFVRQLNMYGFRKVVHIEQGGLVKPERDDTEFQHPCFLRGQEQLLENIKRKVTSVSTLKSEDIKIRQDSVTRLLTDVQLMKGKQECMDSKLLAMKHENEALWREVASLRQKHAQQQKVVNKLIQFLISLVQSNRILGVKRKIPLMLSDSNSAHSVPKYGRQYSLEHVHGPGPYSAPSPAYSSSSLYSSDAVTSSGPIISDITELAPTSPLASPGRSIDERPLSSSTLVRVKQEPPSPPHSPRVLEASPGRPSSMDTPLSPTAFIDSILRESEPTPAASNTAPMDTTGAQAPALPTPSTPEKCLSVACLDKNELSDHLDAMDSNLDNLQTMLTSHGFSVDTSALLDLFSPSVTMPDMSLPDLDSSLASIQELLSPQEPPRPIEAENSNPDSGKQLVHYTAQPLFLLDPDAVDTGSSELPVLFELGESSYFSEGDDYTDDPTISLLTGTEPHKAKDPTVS
# [9] = Intein inhibitors as potential Tuberculosis drugs, a cytotoxicity screen. [Related pubchem assays (depositor defined):AID2221, AID2223, AID434968, AID435010, AID449749, AID449750, AID489010]; format: functional
# [10] = biological target: T4, Replicative DNA helicase DnaB (Mycobacterium tuberculosis, UniProt P9WMR3); assay: DnaB intein splicing inhibitors, dose response, biochemical, cell-free fluorescence (AID 449749); format: functional
# T4 sequence (P9WMR3 whole entry): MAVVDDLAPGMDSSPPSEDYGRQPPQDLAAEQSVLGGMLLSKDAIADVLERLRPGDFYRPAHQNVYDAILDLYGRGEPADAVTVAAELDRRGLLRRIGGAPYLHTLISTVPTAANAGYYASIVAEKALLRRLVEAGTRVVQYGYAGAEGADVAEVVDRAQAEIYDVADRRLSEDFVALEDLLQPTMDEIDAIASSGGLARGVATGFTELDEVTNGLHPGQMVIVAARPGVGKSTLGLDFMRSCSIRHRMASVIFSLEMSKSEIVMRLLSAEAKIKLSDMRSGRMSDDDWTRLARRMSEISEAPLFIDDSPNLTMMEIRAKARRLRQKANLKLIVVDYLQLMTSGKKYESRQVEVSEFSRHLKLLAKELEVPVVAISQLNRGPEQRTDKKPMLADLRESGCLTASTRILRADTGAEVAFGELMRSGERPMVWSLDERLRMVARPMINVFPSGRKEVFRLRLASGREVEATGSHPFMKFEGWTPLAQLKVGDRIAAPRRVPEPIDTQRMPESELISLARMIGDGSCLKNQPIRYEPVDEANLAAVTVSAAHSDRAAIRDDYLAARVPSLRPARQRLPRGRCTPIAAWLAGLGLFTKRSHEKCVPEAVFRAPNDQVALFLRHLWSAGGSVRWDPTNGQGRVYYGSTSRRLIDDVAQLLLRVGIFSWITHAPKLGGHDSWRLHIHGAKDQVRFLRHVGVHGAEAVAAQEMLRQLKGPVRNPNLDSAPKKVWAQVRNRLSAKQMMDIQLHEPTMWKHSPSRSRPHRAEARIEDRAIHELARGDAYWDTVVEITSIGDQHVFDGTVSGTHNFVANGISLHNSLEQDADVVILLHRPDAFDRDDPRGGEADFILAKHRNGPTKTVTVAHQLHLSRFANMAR
# Protein RecA = biological target: T5, Protein RecA (Mycobacterium tuberculosis, UniProt P9WHJ3); assay: Fluorescence Cell-Free Homogeneous Dose Retest to Identify Inhibitors of RecA-Intein Splicing Activity. [Related pubchem assays (depositor defined):AID2097, AID2223, AID489010, AID492950]; format: functional
# T5 sequence (P9WHJ3 whole entry): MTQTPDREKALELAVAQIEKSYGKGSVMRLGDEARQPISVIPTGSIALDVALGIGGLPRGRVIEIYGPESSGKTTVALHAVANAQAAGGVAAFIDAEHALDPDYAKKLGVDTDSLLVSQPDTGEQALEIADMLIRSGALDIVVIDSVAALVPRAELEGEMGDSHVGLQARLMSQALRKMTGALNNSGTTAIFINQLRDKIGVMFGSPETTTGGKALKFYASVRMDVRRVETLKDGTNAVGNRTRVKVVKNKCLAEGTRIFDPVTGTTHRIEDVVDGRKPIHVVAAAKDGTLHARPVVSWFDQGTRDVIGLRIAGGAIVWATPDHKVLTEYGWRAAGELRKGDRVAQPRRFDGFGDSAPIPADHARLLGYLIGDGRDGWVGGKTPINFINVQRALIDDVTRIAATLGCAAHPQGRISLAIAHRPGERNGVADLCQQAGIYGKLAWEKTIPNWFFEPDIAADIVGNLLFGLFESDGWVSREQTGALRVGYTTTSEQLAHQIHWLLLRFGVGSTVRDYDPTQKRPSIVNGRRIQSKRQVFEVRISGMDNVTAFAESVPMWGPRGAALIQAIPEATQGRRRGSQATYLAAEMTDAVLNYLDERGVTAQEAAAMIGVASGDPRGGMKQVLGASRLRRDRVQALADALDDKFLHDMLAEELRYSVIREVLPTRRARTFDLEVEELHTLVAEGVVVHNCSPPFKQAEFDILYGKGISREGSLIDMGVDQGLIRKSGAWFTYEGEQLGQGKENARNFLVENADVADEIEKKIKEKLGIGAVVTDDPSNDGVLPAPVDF
# Paired box protein Pax-8 = Paired box protein Pax-8 (Homo sapiens, UniProt Q06710); assay: PAX8 transcriptional activity inhibition in RMG-I – RMG-I cells, luciferase, cherry-pick, dose response (AID 687027); format: functional, cell-based;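 further: luciferase reporter driven by Pax8 target thyroperoxidase promoter measured by SteadyGlo luminescence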
# Sequence of Paired box protein Pax-8 (Q06710 whole entry): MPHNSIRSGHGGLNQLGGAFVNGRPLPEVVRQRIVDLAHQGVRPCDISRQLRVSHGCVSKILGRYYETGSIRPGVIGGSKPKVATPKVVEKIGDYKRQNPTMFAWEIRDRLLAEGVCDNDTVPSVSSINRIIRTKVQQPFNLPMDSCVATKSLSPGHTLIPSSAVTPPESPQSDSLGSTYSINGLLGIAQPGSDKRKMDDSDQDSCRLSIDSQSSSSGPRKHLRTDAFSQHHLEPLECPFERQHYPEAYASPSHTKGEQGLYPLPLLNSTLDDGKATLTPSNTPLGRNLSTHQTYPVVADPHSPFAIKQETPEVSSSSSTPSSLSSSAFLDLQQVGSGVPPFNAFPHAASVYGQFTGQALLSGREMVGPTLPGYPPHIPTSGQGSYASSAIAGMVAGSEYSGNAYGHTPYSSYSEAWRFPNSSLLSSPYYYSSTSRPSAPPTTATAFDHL
# [11] = general cell-killing toxicity readout – plate reader, dry powder samples, cytotoxicity control for PAX8 inhibitor project, dose response (AID 743021); format: functional, cell-based
# [12] = THP-1 cell cytotoxicity, dose response, cytotoxicity control for non-replicating M. tuberculosis project (AID 489025); format: functional
# [13] = HepG2 cell cytotoxicity, dose response, cytotoxicity control for non-replicating M. tuberculosis project (AID 489018); format: functional; settings: Mycobacterium tuberculosis
# cells = format: functional
# BJ [14] = assay: BJ-TERT fibroblast viability loss – cell-based, RAS-independent, luminescence, dose response (AID 1933); format: functional; settings: Homo sapiens
# BJ [15] = assay: cells; format: functional, cell-based; settings: Homo sapiens
# BJ [16] = assay: BJ-TERT-LT-ST fibroblast viability loss – cell-based, RAS-independent, luminescence, dose response (AID 1935); format: functional; settings: Homo sapiens;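 further: BJ fibroblasts immortalized with TERT plus LT and ST oncogenes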
# [17] = DRD fibroblast viability loss – cell-based, non-viral oncogenic, luminescence, dose response (AID 1934); format: functional; settings: Homo sapiens
# Hexokinase HKDC1 = biological target: T6, Hexokinase HKDC1 (Homo sapiens, UniProt Q2TB90); assay: inhibition of HKDC1 glucose phosphorylation – biochemical, W721R variant, dose response (AID 504729); format: functional
# T6 sequence (Q2TB90 whole entry): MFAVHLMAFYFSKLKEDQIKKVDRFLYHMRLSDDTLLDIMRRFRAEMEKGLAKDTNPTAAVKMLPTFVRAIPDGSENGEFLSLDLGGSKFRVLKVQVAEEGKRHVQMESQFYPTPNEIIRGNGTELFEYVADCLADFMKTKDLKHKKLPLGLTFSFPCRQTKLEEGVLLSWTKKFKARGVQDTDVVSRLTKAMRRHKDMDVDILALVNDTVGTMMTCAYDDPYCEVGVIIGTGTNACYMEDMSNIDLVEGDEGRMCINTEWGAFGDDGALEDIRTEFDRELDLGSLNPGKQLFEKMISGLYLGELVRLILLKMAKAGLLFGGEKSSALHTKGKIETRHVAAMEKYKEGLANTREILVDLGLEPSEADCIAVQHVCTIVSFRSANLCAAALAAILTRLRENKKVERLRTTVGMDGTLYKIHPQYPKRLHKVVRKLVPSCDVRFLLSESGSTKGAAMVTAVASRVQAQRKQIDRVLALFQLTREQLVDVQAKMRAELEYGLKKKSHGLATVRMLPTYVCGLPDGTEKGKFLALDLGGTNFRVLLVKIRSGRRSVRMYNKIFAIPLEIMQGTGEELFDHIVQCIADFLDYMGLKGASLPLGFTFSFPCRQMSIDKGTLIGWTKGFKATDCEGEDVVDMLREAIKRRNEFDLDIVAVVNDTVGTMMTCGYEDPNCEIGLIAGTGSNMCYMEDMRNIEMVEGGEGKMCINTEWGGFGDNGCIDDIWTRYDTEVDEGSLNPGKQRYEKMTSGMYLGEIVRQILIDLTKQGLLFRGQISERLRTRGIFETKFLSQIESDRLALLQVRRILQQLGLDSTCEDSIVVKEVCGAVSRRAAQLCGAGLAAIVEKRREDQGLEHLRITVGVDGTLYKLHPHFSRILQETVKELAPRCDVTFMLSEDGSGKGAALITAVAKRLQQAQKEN
# Sequence of G-protein coupled receptor 55 (Q9Y2T6 whole entry): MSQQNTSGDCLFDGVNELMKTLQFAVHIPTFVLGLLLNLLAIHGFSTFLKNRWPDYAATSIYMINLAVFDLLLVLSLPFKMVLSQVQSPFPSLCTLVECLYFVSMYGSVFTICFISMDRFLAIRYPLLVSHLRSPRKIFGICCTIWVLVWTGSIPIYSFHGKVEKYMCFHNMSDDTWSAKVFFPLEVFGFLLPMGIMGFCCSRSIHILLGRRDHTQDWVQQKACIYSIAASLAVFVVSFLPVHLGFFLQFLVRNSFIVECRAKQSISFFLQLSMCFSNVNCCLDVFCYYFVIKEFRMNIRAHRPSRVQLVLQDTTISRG
structure (smiles),measurement,setting,value
COc1ccc(CNCCC(c2ccccc2)c2ccc3c(c2)OCO3)cc1 (stereo not given),IC50,[1],0.965 µM (active)
same,EC50,[2],3.27 µM (active)
same,EC50,[3],> 60 µM (not active)
same,AC50,INS1,9.28 µM (active)
Cc1noc(C)c1C(=O)NC(C)c1ccc2c(c1)OCO2 (stereo not given),IC50,Coagulation factor XII,> 50 µM (inactive)
Fc1ccccc1/C=N/Nc1nc(-c2ccccn2)nc2ccccc12,EC50,[4],1.03 µM (active)
same,EC50,[5],0.456 µM (active)
same,EC50,[2],0.357 µM (active)
same,IC50,[6],6.19 µM (active)
same,EC50,[3],54.9 µM (active)
same,EC50,Beta-galactosidase,> 31.5 µM (inactive)
same,pIC50,[7],< 4.49
same,AC50,INS1,0.984 µM (active)
Cc1ccc(N(NC(=O)C(O)(c2ccccc2)c2ccccc2)C(=O)CCl)cc1,CC50,Vero,6.32 µM (active)
same,EC50,[8],> 260 µM (inconclusive)
same,CC50,[9],7.46 µM (active)
same,AC50,[10],4.45 µM (active)
same,EC50,Protein RecA,0.529 µM (active)
same,AC50,Paired box protein Pax-8,8.18 µM (active)
same,AC50,[11],11.8 µM (active)
COC(=O)C1=CN(C(C)C)C=C(C(=O)OC)C1c1cc2c(cc1Br)OCO2,IC50,[1],4.97 µM (active)
Clc1c(OCCCn2ccnc2)ccc2ccccc12,EC50,[2],0.708 µM (active)
same,EC50,[3],> 60 µM (not active)
same,CC50,[12],37.1 µM (active)
same,CC50,[13],> 20 µM (active)
same,IC50,cells,9.76 µM (active)
CC(=O)n1cc(N(C(=O)CCl)c2ccc([N+](=O)[O-])cc2)c2ccccc21,EC50,BJ [14],2.65 µM (inconclusive)
same,EC50,BJ [15],2.59 µM (inconclusive)
same,EC50,BJ [16],4.78 µM (inconclusive)
same,EC50,[17],2.63 µM (inconclusive)
same,CC50,[9],12.3 µM (active)
same,IC50,Hexokinase HKDC1,27 µM (inactive)
same,AC50,[10],1.59 µM (active)
same,EC50,Protein RecA,0.358 µM (active)
O=C(CN1C(=O)C2C3C=CC(C3)C2C1=O)NCCC1=CCCCC1 (stereo not given),IC50,Coagulation factor XII,> 50 µM (inactive)
